Results reported in patent US20240199598A1 (MITOIMMUNE THERAPEUTICS INC., priority 2021, published 2024).
Entries after “also recorded” stand apart in the source; their conditions may differ. Read-outs that look alike come from different tables or passages of the source.

Experiments:
[1] = Oral administration pharmacokinetic test using mice; settings: mice, oral
[2] = Simulated gastrointestinal fluid solubility test (SGF, FaSSIF, FeSSIF); assay type: physicochemical; settings: fed state simulated intestinal fluid (FeSSIF), 37 °C, pH 4.98, fessif, thermodynamic from solid
Protocol: As simulated gastrointestinal fluid media (Biorelevant dissolution media) used for environment assessment in the simulated gastrointestinal tract, simulated gastric fluid (SGF), fasted state simulated intestinal fluid (FaSSIF), and fed state simulated intestinal fluid (FeSSIF) were used, and a detailed description of the test is as follows.
All vials were placed on a hot plate stirrer and maintained while stirring at 37° C. and 700 rpm. […] After mixing at 37° C. for 24 hours, 300 μL of the suspension was separated from each vial and analyzed.
The analysis sample was centrifuged at 14000 rpm for 5 minutes, and then the supernatant was diluted 10-fold with ACN:H2O (7/3, v/v) and analyzed by ultra-performance liquid chromatography (UPLC).

[3] = Physicochemical stability test of free form and 5 salts (60° C., 40° C./75% humidity, light); settings: for Final purity: HPLC
Protocol: In the case of a light stability test, the vial was stored in a light stability test chamber while being not closed with a lid, and exposed to a total illuminance of 1.2 million lux-hr. A vial light-shielded with aluminum foil was used as an experimental control (Dark control). For stability assessment, state assessment by visual observation, purity assessment using HPLC, and crystalline form assessment using XRPD were conducted, and results thereof are shown in Table 7. […] In FIGS. 19 to 30, “Light” represents light irradiation condition results.

[4] = Solubility test of sulfate (Crystalline form III) in various solvents; assay type: physicochemical; settings: thermodynamic from solid
Protocol: First, solvent screening was performed for a study on various crystalline forms.

O=S1(=O)CCN(Cc2cc(NC3CCOCC3)c3[nH]c(-c4ccccc4)cc3c2)CC1 [Sulfate]
Cmax ([1]; 10 mg/kg): 3154.8 ng/mL | t½ ([1]; 10 mg/kg): 4.0 h | AUClast ([1]; 10 mg/kg, listed as sulfate of the compound of Chemical Formula 1, 10 mg/kg): 11499.35 ng·h/mL | Pharmacokinetic test, t½ ([1]; summary Table 9): 4 h | solubility at 24 h ([2]; FeSSIF (pH = 4.98), 37° C., after 24 hours, read-out: Solubility): 130 µg/mL | solubility at 24 h ([2]; summary Table 9, read-out: Stimulated gastrointestinal fluid solubility, FeSSIF): 130 µg/mL | Assay ([3]; 1.2 million lux-hr): 104.98% | Purity change ([3]; 1.2 million lux-hr): +0.14% | XRPD patterns ([3]; 1.2 million lux-hr): Pattern 2-I | Final purity ([3]; 1.2 million lux-hr): 99.87% | Appearance ([3]; 40° C./75% RH, 1 w): White powder | Assay ([3]; 40° C./75% RH, 1 w): 109.86% | Purity change ([3]; 40° C./75% RH, 1 w): −0.43% | XRPD patterns ([3]; 40° C./75% RH, 1 w): Pattern 2-I | Final purity ([3]; 40° C./75% RH, 1 w): 99.30% | Chemical stability (purity change %/1 w), 40° C./75% RH ([3]; 40° C./75% RH, 1 w, summary Table 9): −0.43% | Appearance ([3]; 60° C., 1 w): White powder | Assay ([3]; 60° C., 1 w): 110.59% | Purity change ([3]; 60° C., 1 w): +0.1% | XRPD patterns ([3]; 60° C., 1 w): Pattern 2-I | Final purity ([3]; 60° C., 1 w): 99.83% | Chemical stability (purity change %/1 w), 60° C. ([3]; 60° C., 1 w, summary Table 9): 0.1% | Sensitivity to heat, humidity and light conditions (in words) ([3]; 60° C., 40° C./75% humidity, 1.2 million lux-hr, listed as sulfate of the compound of Chemical Formula 1): sensitive under a humidity condition; also recorded: comparable results to the free form of the compound of Chemical Formula 1 under high-temperature and light stability conditions, except for a humidity condition | Assay ([3]; Dark control): 105.93% | Purity change ([3]; Dark control): +0.02% | XRPD patterns ([3]; Dark control): Pattern 2-I | Final purity ([3]; Dark control): 99.75% | Chemical stability (purity change %/1 w), Light stability ([3]; light stability, summary Table 9): 0.14% | solubility ([4]; aqueous with cosolvent or surfactant or cyclodextrin, Acetic acid-H2O (1:1), 25° C., read-out: Solubility): 196000 to 295000 µg/mL | solubility ([4]; aqueous with cosolvent or surfactant or cyclodextrin, Acetic acid-H2O (1:1), 50° C., read-out: Solubility): 300000 to 599000 µg/mL | solubility ([4]; aqueous with cosolvent or surfactant or cyclodextrin, Acetone-H2O (1:2), 25° C., read-out: Solubility): 9000 to 19000 µg/mL | solubility ([4]; aqueous with cosolvent or surfactant or cyclodextrin, Acetone-H2O (1:2), 50° C., read-out: Solubility): 37000 to 75000 µg/mL | solubility ([4]; aqueous with cosolvent or surfactant or cyclodextrin, MeOH/H2O = 1:1(v/v), 25° C., read-out: Solubility): 2000 to 3000 µg/mL | solubility ([4]; aqueous with cosolvent or surfactant or cyclodextrin, MeOH/H2O = 1:1(v/v), 50° C., read-out: Solubility): 9000 to 19000 µg/mL | solubility ([4]; aqueous with cosolvent or surfactant or cyclodextrin, in MeOH/H2O (1:1 (v:v)) and acetone/water (1:1 (v/v)), read-out: Solubility (good)): 5000 to 40000 µg/mL | solubility ([4]; organic solvent or mixture, 1-Butanol, 25° C., read-out: Solubility): < 2000 µg/mL | solubility ([4]; organic solvent or mixture, 1-Butanol, 50° C., read-out: Solubility): < 2000 µg/mL | solubility ([4]; organic solvent or mixture, 2-MeTHF, 25° C., read-out: Solubility): < 2000 µg/mL | solubility ([4]; organic solvent or mixture, 2-MeTHF, 50° C., read-out: Solubility): < 2000 µg/mL | solubility ([4]; organic solvent or mixture, ACN, 25° C., read-out: Solubility): < 2000 µg/mL | solubility ([4]; organic solvent or mixture, ACN, 50° C., read-out: Solubility): < 2000 µg/mL | solubility ([4]; organic solvent or mixture, Acetone, 25° C., read-out: Solubility): < 2000 µg/mL | solubility ([4]; organic solvent or mixture, Acetone, 50° C., read-out: Solubility): < 2000 µg/mL | solubility ([4]; organic solvent or mixture, CHCl3, 25° C., read-out: Solubility): < 2000 µg/mL | solubility ([4]; organic solvent or mixture, CHCl3, 50° C., read-out: Solubility): < 2000 µg/mL | solubility ([4]; organic solvent or mixture, DMF, 25° C., read-out: Solubility): 202000 to 302000 µg/mL | solubility ([4]; organic solvent or mixture, DMF, 50° C., read-out: Solubility): 304000 to 608000 µg/mL | solubility ([4]; organic solvent or mixture, DMSO, 25° C., read-out: Solubility): 158000 to 210000 µg/mL | solubility ([4]; organic solvent or mixture, DMSO, 50° C., read-out: Solubility): 301000 to 602000 µg/mL | solubility ([4]; organic solvent or mixture, EtOAc, 25° C., read-out: Solubility): < 2000 µg/mL | solubility ([4]; organic solvent or mixture, EtOAc, 50° C., read-out: Solubility): < 2000 µg/mL | solubility ([4]; organic solvent or mixture, EtOH, 25° C., read-out: Solubility): < 2000 µg/mL | solubility ([4]; organic solvent or mixture, EtOH, 50° C., read-out: Solubility): < 2000 µg/mL | solubility ([4]; organic solvent or mixture, Heptane, 25° C., read-out: Solubility): < 2000 µg/mL | solubility ([4]; organic solvent or mixture, Heptane, 50° C., read-out: Solubility): < 2000 µg/mL | solubility ([4]; organic solvent or mixture, IPA, 25° C., read-out: Solubility): < 2000 µg/mL | solubility ([4]; organic solvent or mixture, IPA, 50° C., read-out: Solubility): < 2000 µg/mL | solubility ([4]; organic solvent or mixture, MEK, 25° C., read-out: Solubility): < 2000 µg/mL | solubility ([4]; organic solvent or mixture, MEK, 50° C., read-out: Solubility): < 2000 µg/mL | solubility ([4]; organic solvent or mixture, MIBK, 25° C., read-out: Solubility): < 2000 µg/mL | solubility ([4]; organic solvent or mixture, MIBK, 50° C., read-out: Solubility): < 2000 µg/mL | solubility ([4]; organic solvent or mixture, MTBE, 25° C., read-out: Solubility): < 2000 µg/mL | solubility ([4]; organic solvent or mixture, MTBE, 50° C., read-out: Solubility): < 2000 µg/mL | solubility ([4]; organic solvent or mixture, MeOH, 25° C., read-out: Solubility): < 2000 µg/mL | solubility ([4]; organic solvent or mixture, MeOH, 50° C., read-out: Solubility): 2000 to 3000 µg/mL | solubility ([4]; organic solvent or mixture, NMP, 25° C., read-out: Solubility): 156000 to 208000 µg/mL | solubility ([4]; organic solvent or mixture, NMP, 50° C., read-out: Solubility): 202000 to 304000 µg/mL | solubility ([4]; organic solvent or mixture, THF, 25° C., read-out: Solubility): < 2000 µg/mL | solubility ([4]; organic solvent or mixture, THF, 50° C., read-out: Solubility): < 2000 µg/mL | solubility ([4]; organic solvent or mixture, Toluene, 25° C., read-out: Solubility): < 2000 µg/mL | solubility ([4]; organic solvent or mixture, Toluene, 50° C., read-out: Solubility): < 2000 µg/mL | solubility ([4]; organic solvent or mixture, iPrOAc, 25° C., read-out: Solubility): < 2000 µg/mL | solubility ([4]; organic solvent or mixture, iPrOAc, 50° C., read-out: Solubility): < 2000 µg/mL | solubility ([4]; organic solvent or mixture, in DMF, NMP, DMSO and acetic acid/water (1:1 (v:v)), read-out: Solubility (excellent)): ≥ 150000 µg/mL | solubility ([4]; organic solvent or mixture, in methanol, ethanol, isopropanol, 1-butanol, acetonitrile, acetone, MEK, MIBK, ethyl acetate, isopropyl acetate, MTBE, tetrahydrofuran, chloroform, toluene, heptane and water, read-out: Solubility (low)): ≤ 5000 µg/mL | solubility ([4]; Water, 25° C., read-out: Solubility): < 2000 µg/mL | solubility ([4]; Water, 50° C., read-out: Solubility): < 2000 µg/mL
